Source: patent US20160374370A1, “BEVERAGE COMPRISING FERROUS PICOLINATE” (NESTEC S.A., priority 2013, published 2016)

Assay: Colour change in iron fortified strawberry fermented milk beverages (CIELAB colorimetry)
Assay type: physicochemical
Details: for ΔEab* on addition / ΔEab* after heat treatment: colour difference vs beverage with no iron salts, approx. 2.1 mg iron per 100 g; for ΔEab* on addition: fermented milk beverage containing 2.1% strawberry, stirred under argon 20 minutes; for ΔEab* after heat treatment: heat treated at 95° C. for 2 minutes, 2.1% strawberry fermented milk beverage
Procedure: Ferrous picolinate was prepared according to the procedure of U.S. Pat. No. 4,315,927 Example 3. A fermented milk beverage containing 2.1% strawberry was iron fortified by the addition of ferrous sulphate (Dr Paul Lohmann™) (Sample A) or ferrous picolinate (Sample B). The amount of the ferrous salts were chosen to provide approximately 2.1 mg iron per 100 g fermented milk beverage. Each ferrous salt was added to the fermented milk beverage and stirred under argon for 20 minutes. A further sample without iron fortification was also prepared in the same manner. Colour measurements were performed in 1×1 cm polystyrene cuvettes using an X-Rite ColorEye 7000A colorimeter. The colorimeter was set up with a D65 light source, 10 degree observer angle and with specular component included. The colour difference between the beverage with no iron salts and the iron fortified beverages was measured for each ferrous salt and expressed as ΔEab* using the CIELAB colour scale.
The fermented milks were then heat treated at 95° C. for 2 minutes. Colour measurements were performed in the same manner as before. The colour difference between the beverage with no iron salts and the iron fortified beverages was measured for each ferrous salt and expressed as ΔEab* using the CIELAB colour scale.

| Molecule | ΔEab* on addition | ΔEab* after heat treatment | colour compared with the beverage with no added iron (both after simple addition of the salts and after heat treatment, compared with ferrous sulphate) |
| --- | --- | --- | --- |
| O=S(=O)([O-])[O-].[Fe+2] [FeSO4 × H20, ferrous sulphate, reference compound] | 0.84 | 2.80 | – |
| ferrous picolinate | 0.36 | 1.66 | closer in colour to the beverage with no added iron than the beverage fortified with ferrous sulphate |
